Test results published in the supplement of paper PMC10307832.

Columns and labels:
Assay in all cases: relative viability (nuclei count vs DMSO), 5 days (fraction); higher = more cells survive
VE-821 + Dasatinib = compound: CS(=O)(=O)c1ccc(-c2cnc(N)c(C(=O)Nc3ccccc3)n2)cc1 [VE-821] + Cc1nc(Nc2ncc(C(=O)Nc3c(C)cccc3Cl)s2)cc(N2CCN(CCO)CC2)n1 [Dasatinib] (partner 0.075 µM)
Outline: (§1)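 Lung cancer cell lines were pin-tool dosed in 1536-well plates on the day after seeding, with either a lone drug or a fixed anchor-drug dose plus five library-drug doses (not always all listed) in √10 steps. Nuclei were counted on 4× images after 5 days. Relative viability is the ratio of treated-well to vehicle-well nuclei counts, with each value a median of duplicate plates.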

Vismodegib + Palbociclib = compound: CS(=O)(=O)c1ccc(C(=O)Nc2ccc(Cl)c(-c3ccccn3)c2)c(Cl)c1 [Vismodegib] + CC(=O)c1c(C)c2cnc(Nc3ccc(N4CCNCC4)cn3)nc2n(C2CCCC2)c1=O [Palbociclib] (partner 0.5 µM)
Outline: as §1

Vismodegib + Navitoclax = compound: CS(=O)(=O)c1ccc(C(=O)Nc2ccc(Cl)c(-c3ccccn3)c2)c(Cl)c1 [Vismodegib] + CC1(C)CCC(c2ccc(Cl)cc2)=C(CN2CCN(c3ccc(C(=O)NS(=O)(=O)c4ccc(N[C@H](CCN5CCOCC5)CSc5ccccc5)c(S(=O)(=O)C(F)(F)F)c4)cc3)CC2)C1 [Navitoclax] (partner 0.5 µM)
Outline: as §1

Vismodegib + Pemetrexed = compound: CS(=O)(=O)c1ccc(C(=O)Nc2ccc(Cl)c(-c3ccccn3)c2)c(Cl)c1 [Vismodegib] + Nc1nc2[nH]cc(CCc3ccc(C(=O)N[C@@H](CCC(=O)O)C(=O)O)cc3)c2c(=O)[nH]1 [Pemetrexed] (partner 0.2 µM)
Outline: as §1

| Cell Line | relative viability (VE-821 + Dasatinib; first compound 0.08 µM) | relative viability (VE-821 + Dasatinib; first compound 0.253 µM) | relative viability (VE-821 + Dasatinib; first compound 0.8 µM) | relative viability (VE-821 + Dasatinib; first compound 2.53 µM) | relative viability (VE-821 + Dasatinib; first compound 8 µM) | relative viability (Vismodegib + Palbociclib; first compound 0.08 µM) | relative viability (Vismodegib + Palbociclib; first compound 0.253 µM) | relative viability (Vismodegib + Palbociclib; first compound 0.8 µM) | relative viability (Vismodegib + Palbociclib; first compound 2.53 µM) | relative viability (Vismodegib + Palbociclib; first compound 8 µM) | relative viability (Vismodegib + Navitoclax; first compound 0.08 µM) | relative viability (Vismodegib + Navitoclax; first compound 0.253 µM) | relative viability (Vismodegib + Navitoclax; first compound 0.8 µM) | relative viability (Vismodegib + Navitoclax; first compound 2.53 µM) | relative viability (Vismodegib + Navitoclax; first compound 8 µM) | relative viability (Vismodegib + Pemetrexed; first compound 0.08 µM) | relative viability (Vismodegib + Pemetrexed; first compound 0.253 µM) | relative viability (Vismodegib + Pemetrexed; first compound 0.8 µM) | relative viability (Vismodegib + Pemetrexed; first compound 2.53 µM) | relative viability (Vismodegib + Pemetrexed; first compound 8 µM) |
| --- | --- | --- | --- | --- | --- | --- | --- | --- | --- | --- | --- | --- | --- | --- | --- | --- | --- | --- | --- | --- |
| 201T | 0.588 | 0.529 | 0.476 | 0.434 | 0.44 | 0.323 | 0.393 | 0.363 | 0.359 | 0.382 | 1.23 | 1.18 | 1.15 | 1.23 | 1.17 | 0.323 | 0.354 | 0.336 | 0.335 | 0.297 |
| A549 | – | – | – | – | – | – | – | – | – | – | 1.02 | 1.13 | 1.28 | 1.18 | 1.23 | – | – | – | – | – |
| A-427 | 0.793 | 0.647 | 0.657 | 0.652 | 0.423 | 0.536 | 0.525 | 0.506 | 0.493 | 0.566 | 0.988 | 0.897 | 0.889 | 1 | 0.976 | 1.08 | 0.939 | 0.912 | 1.01 | 0.902 |
| ABC-1 | 0.554 | 0.519 | 0.614 | 0.517 | 0.439 | 0.667 | 1.01 | 0.542 | 0.618 | 0.73 | – | – | – | – | – | – | – | – | – | – |
| BEN | 0.31 | 0.337 | 0.282 | 0.291 | 0.364 | 0.455 | 0.483 | 0.469 | 0.479 | 0.512 | 0.0646 | 0.062 | 0.0698 | 0.0746 | 0.0684 | 0.679 | 0.682 | 0.784 | 0.754 | 0.737 |
| CAL-12T | 0.499 | 0.327 | 0.372 | 0.443 | 0.243 | 0.45 | 0.499 | 0.569 | 0.454 | 0.442 | 1.21 | 0.965 | 1.33 | 1.23 | 1.24 | 1.12 | 1.13 | 1.13 | 1.14 | 1.13 |
| COR-L23 | 0.678 | 0.48 | 0.545 | 0.536 | 0.395 | 0.337 | 0.33 | 0.344 | 0.289 | 0.312 | 1.02 | 1.03 | 0.959 | 0.951 | 1.14 | 0.195 | 0.19 | 0.184 | 0.195 | 0.207 |
| COR-L 105 | 0.327 | 0.313 | 0.276 | 0.344 | 0.255 | 0.425 | 0.415 | 0.369 | 0.405 | 0.388 | 0.733 | 0.721 | 1.02 | 0.777 | 0.781 | 1.03 | 1.16 | 1.08 | 1.03 | 1.16 |
| Calu-6 | – | – | – | – | – | – | – | – | – | – | 0.712 | 0.781 | 0.817 | 0.877 | 0.845 | – | – | – | – | – |
| ChaGo-K-1 | 0.553 | 0.525 | 0.582 | 0.62 | 0.418 | 0.913 | 0.968 | 0.893 | 0.927 | 0.915 | 0.994 | 1.14 | 0.956 | 0.977 | 0.986 | 0.256 | 0.256 | 0.255 | 0.265 | 0.263 |
| EBC-1 | – | – | – | – | – | – | – | – | – | – | 0.412 | 0.39 | 0.436 | 0.397 | 0.643 | – | – | – | – | – |
| EKVX | 0.531 | 0.483 | 0.449 | 0.45 | 0.328 | – | 0.38 | 0.392 | 0.325 | 0.433 | 0.664 | 0.901 | 0.999 | 0.899 | 0.914 | – | 0.334 | 0.359 | 0.402 | 0.387 |
| EMC-BAC-2 | 0.349 | 0.316 | 0.346 | 0.342 | 0.275 | 0.508 | 0.498 | 0.516 | 0.508 | 0.546 | 1.11 | 1.15 | 1.23 | 1.13 | 1.19 | 0.469 | 0.442 | 0.423 | 0.461 | 0.518 |
| EPLC-272H | 0.341 | 0.325 | 0.418 | 0.41 | 0.219 | 0.307 | 0.305 | 0.355 | 0.342 | 0.311 | 1.01 | 1.2 | 1.09 | 1.09 | 1.09 | 0.285 | 0.418 | 0.324 | 0.317 | 0.33 |
| H3255 | 0.364 | 0.403 | 0.321 | 0.383 | 0.328 | 0.296 | 0.29 | 0.292 | 0.33 | 0.324 | 0.614 | 0.441 | 0.462 | 0.439 | 0.518 | 0.56 | 0.57 | 0.532 | 0.485 | 0.542 |
| HARA | 0.271 | 0.221 | 0.315 | 0.254 | 0.253 | 0.284 | 0.245 | 0.221 | 0.303 | 0.27 | 1.13 | 1.15 | 1.16 | 1.11 | 1.14 | 0.243 | – | 0.303 | 0.263 | 0.242 |
| HCC-15 | 0.704 | 0.595 | 0.6 | 0.721 | 0.495 | 0.718 | 0.715 | 0.794 | 0.838 | 0.738 | 0.675 | 0.678 | 0.689 | 0.665 | 0.676 | 0.215 | 0.215 | 0.265 | 0.219 | 0.228 |
| HCC-44 | – | – | – | – | – | 1.02 | 0.92 | 0.911 | 0.913 | 1.01 | 1.05 | 0.893 | 1.05 | 0.989 | 0.87 | 0.663 | 0.629 | 0.616 | 0.638 | 0.677 |
| HCC-78 | 0.453 | 0.281 | 0.376 | 0.432 | 0.33 | 0.535 | 0.505 | 0.483 | 0.44 | 0.488 | 0.703 | 0.759 | 0.638 | 0.707 | 0.78 | 0.907 | 0.951 | 0.961 | 0.785 | 0.891 |
